Source: ChEMBL document CHEMBL4219149, “Design and synthesis of triple inhibitors of janus kinase (JAK), histone deacetylase (HDAC) and Heat Shock Protein 90 (HSP90)” (Bioorg Med Chem Lett, 2018)

Key:
[1] = target: Heat shock protein HSP90 (Homo sapiens, UniProt P07900+P08238); assay: Inhibition of geldanamycin-based probe binding to HSP90 (unknown origin) by fluorescence polarization assay; format: protein assay
[2] = target: Histone deacetylase 1 (Homo sapiens, UniProt Q13547); assay: Inhibition of HDAC1 (unknown origin) using Arg-His-Lys-Lys(Ac) as substrate after 2 hrs by fluorescence analysis
[3] = target: T1, Protein deacetylase HDAC6 (Homo sapiens, UniProt Q9UBN7); assay: Inhibition of HDAC6 (unknown origin) using Arg-His-Lys-Lys(Ac) as substrate after 2 hrs by fluorescence analysis
T1 sequence (Q9UBN7 whole entry): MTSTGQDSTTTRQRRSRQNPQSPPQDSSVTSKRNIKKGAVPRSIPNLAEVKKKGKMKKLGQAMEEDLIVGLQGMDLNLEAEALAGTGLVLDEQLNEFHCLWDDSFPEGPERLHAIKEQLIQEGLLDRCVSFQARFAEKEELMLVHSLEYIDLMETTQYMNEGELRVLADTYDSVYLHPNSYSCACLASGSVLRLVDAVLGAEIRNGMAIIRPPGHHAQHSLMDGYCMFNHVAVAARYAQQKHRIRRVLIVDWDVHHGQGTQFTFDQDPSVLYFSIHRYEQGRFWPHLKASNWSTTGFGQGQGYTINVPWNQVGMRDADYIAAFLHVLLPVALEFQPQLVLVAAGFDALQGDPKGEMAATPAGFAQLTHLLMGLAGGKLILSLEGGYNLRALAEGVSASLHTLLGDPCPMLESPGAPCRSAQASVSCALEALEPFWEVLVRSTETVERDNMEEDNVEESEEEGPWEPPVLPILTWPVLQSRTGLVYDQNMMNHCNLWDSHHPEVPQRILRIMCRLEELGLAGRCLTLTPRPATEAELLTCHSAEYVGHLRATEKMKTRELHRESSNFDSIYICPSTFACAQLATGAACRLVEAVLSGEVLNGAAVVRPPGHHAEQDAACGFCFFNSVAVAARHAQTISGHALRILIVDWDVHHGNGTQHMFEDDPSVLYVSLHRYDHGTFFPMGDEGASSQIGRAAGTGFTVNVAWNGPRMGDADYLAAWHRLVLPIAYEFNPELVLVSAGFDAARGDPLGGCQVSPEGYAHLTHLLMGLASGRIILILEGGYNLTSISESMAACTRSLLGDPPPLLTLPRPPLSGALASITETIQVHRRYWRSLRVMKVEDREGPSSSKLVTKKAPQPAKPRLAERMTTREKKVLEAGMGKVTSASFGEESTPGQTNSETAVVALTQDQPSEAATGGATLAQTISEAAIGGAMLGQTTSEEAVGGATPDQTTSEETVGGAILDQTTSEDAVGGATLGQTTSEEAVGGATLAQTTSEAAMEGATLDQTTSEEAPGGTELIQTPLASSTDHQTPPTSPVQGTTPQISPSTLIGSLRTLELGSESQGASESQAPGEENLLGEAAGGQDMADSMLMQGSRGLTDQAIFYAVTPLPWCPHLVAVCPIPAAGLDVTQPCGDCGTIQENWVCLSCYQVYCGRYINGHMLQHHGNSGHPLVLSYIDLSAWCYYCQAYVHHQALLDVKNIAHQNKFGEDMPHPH

[4] = target: Heat shock protein HSP 90-alpha (Homo sapiens, UniProt P07900); assay: Inhibition of HSP90alpha (unknown origin)
[5] = target: Tyrosine-protein kinase JAK2 (Homo sapiens, UniProt O60674); assay: Inhibition of human JAK2 using poly[Glu:Tyr] (4:1) as substrate in presence of [gamma33P]-ATP
Tyrosine-protein kinase JAK2, sequence (O60674 whole entry): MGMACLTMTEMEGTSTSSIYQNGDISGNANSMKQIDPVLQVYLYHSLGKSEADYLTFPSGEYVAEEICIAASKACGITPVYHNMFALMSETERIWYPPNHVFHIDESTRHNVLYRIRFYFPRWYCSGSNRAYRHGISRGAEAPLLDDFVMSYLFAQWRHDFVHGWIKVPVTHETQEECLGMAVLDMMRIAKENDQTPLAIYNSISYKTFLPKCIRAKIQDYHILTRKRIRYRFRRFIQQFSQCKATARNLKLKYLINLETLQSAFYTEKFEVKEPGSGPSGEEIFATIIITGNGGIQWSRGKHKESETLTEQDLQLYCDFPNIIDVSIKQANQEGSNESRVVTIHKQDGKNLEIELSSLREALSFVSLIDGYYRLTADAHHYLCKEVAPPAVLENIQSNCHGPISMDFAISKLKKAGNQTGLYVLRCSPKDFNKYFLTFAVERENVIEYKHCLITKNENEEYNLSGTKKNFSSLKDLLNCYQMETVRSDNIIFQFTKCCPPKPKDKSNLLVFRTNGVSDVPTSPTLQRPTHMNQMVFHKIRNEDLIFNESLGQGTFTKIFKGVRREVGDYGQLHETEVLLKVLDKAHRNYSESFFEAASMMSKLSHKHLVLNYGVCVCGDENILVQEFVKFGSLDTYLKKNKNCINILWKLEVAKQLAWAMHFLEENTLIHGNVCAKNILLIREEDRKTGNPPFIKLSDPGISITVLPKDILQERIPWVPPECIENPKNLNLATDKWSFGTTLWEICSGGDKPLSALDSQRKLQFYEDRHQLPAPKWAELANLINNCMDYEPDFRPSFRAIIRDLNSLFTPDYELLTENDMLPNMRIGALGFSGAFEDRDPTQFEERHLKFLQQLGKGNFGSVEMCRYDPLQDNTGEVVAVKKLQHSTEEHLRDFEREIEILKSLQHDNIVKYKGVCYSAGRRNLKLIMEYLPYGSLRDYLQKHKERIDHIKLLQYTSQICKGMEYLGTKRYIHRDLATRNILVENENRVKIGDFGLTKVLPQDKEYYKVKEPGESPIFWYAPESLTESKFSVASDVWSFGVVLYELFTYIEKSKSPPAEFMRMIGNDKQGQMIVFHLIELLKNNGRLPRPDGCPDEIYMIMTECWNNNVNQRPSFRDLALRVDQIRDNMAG

Histone deacetylase 1, sequence (Q13547 whole entry): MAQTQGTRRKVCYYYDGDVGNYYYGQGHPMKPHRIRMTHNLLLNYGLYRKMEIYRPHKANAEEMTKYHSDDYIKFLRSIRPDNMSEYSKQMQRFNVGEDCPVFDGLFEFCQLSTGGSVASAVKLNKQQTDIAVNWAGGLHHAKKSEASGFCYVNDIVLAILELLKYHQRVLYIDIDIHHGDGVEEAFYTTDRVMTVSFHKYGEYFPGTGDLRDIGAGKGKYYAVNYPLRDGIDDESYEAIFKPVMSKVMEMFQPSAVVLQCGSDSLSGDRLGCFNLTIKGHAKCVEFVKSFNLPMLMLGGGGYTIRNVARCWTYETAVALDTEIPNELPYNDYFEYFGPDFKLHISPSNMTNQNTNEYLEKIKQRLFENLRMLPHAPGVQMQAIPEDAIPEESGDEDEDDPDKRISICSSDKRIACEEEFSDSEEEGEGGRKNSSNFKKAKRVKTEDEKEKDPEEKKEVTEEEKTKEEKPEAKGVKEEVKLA

Row | SMILES | IC50 [1] [µM] | IC50 [2] [µM] | IC50 [3] [nM] | IC50 [4] [µM] | IC50 [5] [µM]
1 | CCNC(=O)c1cc2c(-c3cccc(OCCCCCn4cc(-c5ncnc6[nH]ccc56)cn4)c3)nc(N)nc2s1 | > 10 | – | – | – | –
2 | CCNC(=O)c1cc2c(-c3cc(OCCCCCCn4cc(-c5ncnc6[nH]ccc56)cn4)c(Cl)cc3Cl)nc(N)nc2s1 | 0.11 | – | – | – | 1.71
3 | CCNC(=O)c1cc2c(-c3cccc(OCCCCn4cc(-c5ncnc6[nH]ccc56)cn4)c3)nc(N)nc2s1 | > 10 | – | – | – | > 10
4 | CCNC(=O)c1cc2c(-c3cc(OCCCCCn4cc(-c5ncnc6[nH]ccc56)cn4)c(Cl)cc3Cl)nc(N)nc2s1 | 0.4 | – | – | – | 3.45

Further lines, results first:

Row | IC50 [1] [µM] | IC50 [2] [µM] | IC50 [3] [nM] | IC50 [4] [µM] | IC50 [5] [µM] | SMILES
5 | – | > 100 | 6300 | 20.2 | – | CCNC(=O)c1cc2c(-c3cc(OCCCCCCn4cc(-c5nc(Nc6ccc(NC(=O)CCCCCCC(=O)O)cc6)nc6[nH]ccc56)cn4)c(Cl)cc3Cl)nc(N)nc2s1
6 | – | > 100 | 2820 | > 100 | 14.1 | CCNC(=O)c1cc2c(-c3cc(OCCCCCCn4cc(-c5nc(Nc6ccc(NC(=O)CCCCCCC(=O)NO)cc6)nc6[nH]ccc56)cn4)c(Cl)cc3Cl)nc(N)nc2s1
7 | > 10 | – | – | – | – | CCNC(=O)c1cc2c(-c3cccc(OCCCCCCn4cc(-c5ncnc6[nH]ccc56)cn4)c3)nc(N)nc2s1
8 | – | 2.47 | 8 | > 100 | > 100 | CCNC(=O)c1cc2c(-c3cccc(OCCCCCCOc4ccc(Nc5nc(-c6cnn(CCCCCCC(=O)NO)c6)c6cc[nH]c6n5)cc4)c3)nc(N)nc2s1
